These results are taken from US7741340B2, “Hydroxy piperidine derivatives to treat gaucher disease” (Amicus Therapeutics, Inc., priority 2003, dated 2010).

One data set addresses human GCase (Homo sapiens, UniProt P04062). The experiment in a line: Inhibitory activity against GCase (4-methylumbelliferyl β-glucoside substrate). Format: biochemical. Conditions: for IC50: 4-methylumbelliferyl β-glucoside at 3 mM, pH 5.2, 37° C., 30 min.
The conditions of data set [1]: shortly after the start of the treatment; cited from earlier work.
In data set [2] the test system is Fibroblasts established from Gaucher patients with N370S/N370S mutation. As to the kind of experiment: Chaperone rescue of residual GCase activity in Gaucher fibroblasts. Format: cell-based, human. Conditions: N370S homozygous fibroblasts, cultured 4 days with compound, at optimal concentration.

A value given as a limit tells only on which side of the number the result lay.

Sequence of human GCase (P04062 40-536): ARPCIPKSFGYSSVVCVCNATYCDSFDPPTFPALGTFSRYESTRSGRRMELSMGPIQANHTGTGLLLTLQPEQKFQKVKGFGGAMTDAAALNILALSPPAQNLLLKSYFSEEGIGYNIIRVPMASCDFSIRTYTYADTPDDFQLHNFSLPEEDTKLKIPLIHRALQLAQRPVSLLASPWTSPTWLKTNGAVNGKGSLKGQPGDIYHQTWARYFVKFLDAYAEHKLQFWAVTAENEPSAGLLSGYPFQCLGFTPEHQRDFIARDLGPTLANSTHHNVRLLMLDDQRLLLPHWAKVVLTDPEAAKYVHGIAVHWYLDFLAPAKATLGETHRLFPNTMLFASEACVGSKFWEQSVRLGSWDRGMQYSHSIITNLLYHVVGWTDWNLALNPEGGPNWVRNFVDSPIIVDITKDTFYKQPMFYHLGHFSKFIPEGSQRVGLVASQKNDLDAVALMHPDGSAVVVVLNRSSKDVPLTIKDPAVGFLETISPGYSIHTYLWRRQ

As for `CCCCCCCC[C@@H]1NC[C@@H](O)[C@H](O)[C@H]1CO` [Compound 14, (3R, 4R, 5R, 6S)-5-(Hydroxymethyl)-6-n-octyl-3,4-dihydroxypiperidine], the concentration for half-maximal inhibition (IC50) on human GCase came out at 0.8 nM.

Regarding “N-nonyl hydroxypiperidine [reference compound]”, on human GCase, the 50% inhibitory concentration (IC50) was > 100000 nM.

In the case of `CCCCN1CC(O)C(O)C(O)C1CO` (stereo not shown) [N-butyl 1-deoxynojirimycin], in data set [1], the “patients with diarrhea (most frequent adverse effect)” value is recorded as 79%.

Compound “N-butyl hydroxypiperidine [reference compound]” yielded an IC50 on human GCase of 44000 nM.

At human GCase, `CCCCCC[C@@H]1NC[C@@H](O)[C@H](O)[C@H]1CO` [Compound 12, (3R, 4R, 5R, 6S)-5-(Hydroxymethyl)-6-n-hexyl-3,4-dihydroxypiperidine] registered an IC50 of 4.2 nM. In addition, on human GCase (relative to IFG), the “increase in potency over IFG” value is listed as “approximately 13 fold”.

Regarding `OC[C@H]1CNC[C@@H](O)[C@@H]1O` [hydroxypiperidine, isofagomine], in data set [2], the “increase of residual enzyme activity in patient cells” value was “approximately 2 fold”.

Compound `CCCCCCC[C@@H]1NC[C@@H](O)[C@H](O)[C@H]1CO` [Compound 13, (3R, 4R, 5R, 6S)-5-(Hydroxymethyl)-6-n-heptyl-3,4-dihydroxypiperidine] had a half-inhibitory concentration (IC50) at human GCase of 1.8 nM. In other words, the single-digit nanomolar range.

Regarding `CCCC[C@@H]1NC[C@@H](O)[C@H](O)[C@H]1CO` [Compound 11, (3R, 4R, 5R, 6S)-5-(Hydroxymethyl)-6-n-butyl-3,4-dihydroxypiperidine], on human GCase, the IC50 stood at 160 nM. On human GCase (compared with the parent hydroxypiperidine), the “effect of 6-C substitution on potency towards GCase” value is “did not affect the potency”.
